In patent US8173694B2, “Therapeutic agent” (Pentraxin Therapeutics Limited, priority 2001, dated 2012):
Entries after “also recorded” stand apart in the source; their conditions may differ.

Legend:
SAP = SAP (Homo sapiens, UniProt P02743); assay: Circulating human SAP in human SAP transgenic mice, drug in drinking water; type: in vivo, mouse; set-up: on circulating human SAP values in human SAP transgenic mice; from tissue; host or cells: plasma of human SAP transgenic mice; conditions: drug in the drinking water
Procedure: (§1) Clearance from the amyloid deposits, catabolism and excretion of the human SAP tracer were monitored globally by whole body counting of the mice (left), and the total amount of mouse SAP in the amyloidotic organs was determined after killing the animals on day 5 (right). […] Immediately after the 15 minute bleed, two groups, one that had received human SAP and the other mouse SAP, received a single intraperitoneal injection of 5 mg of (R)-1-[6-(R)-2-Carboxy-pyrrolidin-1-yl]-6-oxo-hexanoyl]pyrrolidine-2-carboxylic acid (desapin). Tracer remaining in the circulation is expressed as the mean (SD) percentage of the amount at the 15 minute time point for each group. […] In one of each of the pairs of groups receiving mouse or human SAP respectively, the tracer had been mixed with (R)-1-[6-(R)-2-Carboxy-pyrrolidin-1-yl]-6-oxo-hexanoyl]pyrrolidine-2-carboxylic acid (desapin) and incubated in vitro before injection into the animals. Tracer remaining in the circulation is expressed as mean (SD) total radioactivity per gram of blood in each group. Bottom panel: effect of administration of (R)-1-[6-(R)-2-Carboxy-pyrrolidin-1-yl]-6-oxo-hexanoyl]pyrrolidine-2-carboxylic acid (desapin) in the drinking water at the concentrations shown, on circulating human SAP values in human SAP transgenic mice. Mice of approximately 20 g body weight consume about 3 ml water per day. […]

125I-labelled human SAP = biological target: T1, 125I-labelled human SAP (Homo sapiens, UniProt P02743); assay: Human SAP tracer in amyloid deposits of mice with AA amyloidosis; type: in vivo, mouse
T1 construct: intravenous injection of ^125I-labelled pure human or mouse SAP at time zero
Procedure: Clearance from the amyloid deposits, catabolism and excretion of the human SAP tracer were monitored globally by whole body counting of the mice (left), and the total amount of mouse SAP in the amyloidotic organs was determined after killing the animals on day 5 (right). […] Immediately after the 15 minute bleed, two groups, one that had received human SAP and the other mouse SAP, received a single intraperitoneal injection of 5 mg of (R)-1-[6-(R)-2-Carboxy-pyrrolidin-1-yl]-6-oxo-hexanoyl]pyrrolidine-2-carboxylic acid (desapin). Tracer remaining in the circulation is expressed as the mean (SD) percentage of the amount at the 15 minute time point for each group. […] In one of each of the pairs of groups receiving mouse or human SAP respectively, the tracer had been mixed with (R)-1-[6-(R)-2-Carboxy-pyrrolidin-1-yl]-6-oxo-hexanoyl]pyrrolidine-2-carboxylic acid (desapin) and incubated in vitro before injection into the animals. Tracer remaining in the circulation is expressed as mean (SD) total radioactivity per gram of blood in each group. Bottom panel: effect of administration of (R)-1-[6-(R)-2-Carboxy-pyrrolidin-1-yl]-6-oxo-hexanoyl]pyrrolidine-2-carboxylic acid (desapin) in the drinking water at the concentrations shown, on circulating human SAP values in human SAP transgenic mice. Mice of approximately 20 g body weight consume about 3 ml water per day.
When (R)-1-[6-(R)-2-Carboxy-pyrrolidin-1-yl]-6-oxo-hexanoyl]pyrrolidine-2-carboxylic acid was administered by continuous infusion for 5 days via an indwelling osmotic pump, it dissociated both radiolabelled human SAP tracer, with which the amyloid deposits had previously been loaded, and all the endogenous mouse SAP in the deposits (FIG. 3). […] The SAP-(R)-1-[6-(R)-2-Carboxy-pyrrolidin-1-yl]-6-oxo-hexanoyl]pyrrolidine-2-carboxylic acid complex is evidently recognised as abnormal in vivo and swiftly removed from the circulation, but is apparently formed and/or cleared less efficiently in vivo with mouse SAP compared to human SAP.

SAP in whole human serum = biological target: T2, SAP in whole human serum (Homo sapiens, UniProt P02743); assay: Size exclusion chromatography of whole human serum mixed with drug: SAP; type: binding
T2 construct: Aliquots of a single pool of whole normal human serum, containing SAP and CRP; from tissue; host or cells: pooled whole normal human serum
Procedure: Aliquots of a single pool of whole normal human serum, containing SAP and CRP, were mixed with (R)-1-[6-(R)-2-Carboxy-pyrrolidin-1-yl]-6-oxo-hexanoyl]pyrrolidine-2-carboxylic acid at the molar ratios shown, with respect to pentraxin protomer, and analysed by size exclusion chromatography precisely as described previously (14). The mixtures and the column eluants contained either no calcium ions or 2 mM calcium, and the concentrations of drug appropriate to maintain the molar ratios indicated above. SAP in whole serum is a stable soluble pentameric assembly of protomers, stabilised by the presence of the normal high concentration of serum albumin. However as SAP is separated from serum albumin during gel filtration with a calcium containing eluant, the SAP autoaggregates and elutes entirely as high molecular weight polymers in the void volume of the column. This is because, in the absence of a specific ligand to which it can bind, isolated human SAP is insoluble in the presence of calcium (14). However in the absence of calcium, where no ligand binding or autoaggregation can occur, SAP forms stable decamers, providing an excellent marker for the elution volume of this molecular assembly (14). Human CRP is a stable pentamer either in the presence or absence of calcium and thus provides a robust marker for the elution position of that molecular form (14).

[1] = Metabolism, excretion and oral bioavailability in mice; type: in vivo, mouse
mouse SAP = biological target: T3, mouse SAP (Mus musculus, UniProt P12246); assay: Endogenous mouse SAP in amyloid deposits of mice with AA amyloidosis; type: in vivo
T3 construct: all the endogenous mouse SAP in the deposits; from tissue; host or cells: mice in vivo: amyloidotic organs, or plasma of normal wild type mice
T3 sequence (P12246 21-224): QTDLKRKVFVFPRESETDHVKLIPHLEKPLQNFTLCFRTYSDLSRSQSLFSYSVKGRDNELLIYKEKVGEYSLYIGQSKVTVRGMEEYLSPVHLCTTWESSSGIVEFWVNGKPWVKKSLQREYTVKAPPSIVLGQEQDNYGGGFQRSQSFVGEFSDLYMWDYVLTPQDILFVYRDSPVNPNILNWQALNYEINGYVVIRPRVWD
Procedure: as §1

plasma SAP = biological target: T4, plasma SAP (Homo sapiens, UniProt P02743); assay: Subcutaneous injection in patients with systemic amyloidosis: plasma SAP; type: in vivo; conditions: subcutaneous injection 0.25 mg/kg/day in 12 hourly divided doses
T4 construct: from tissue; host or cells: plasma of patients in vivo
Procedure: The doses of (R)-1-[6-(R)-2-Carboxy-pyrrolidin-1-yl]-6-oxo-hexanoyl]pyrrolidine-2-carboxylic acid (desapin) shown were given by 12 hourly subcutaneous injections to two individual patients with systemic amyloidosis, and with small and moderate amyloid loads respectively. The disappearance of circulating SAP was effectively the same as during intravenous infusion of the drug, and in the patient illustrated in the right panel, who had received a tracer dose of ^123I-SAP, there was accumulation of SAP in the liver and accelerated clearance from the spleen.

[2] = continuous infusion for 5 days via osmotic pump
[3] = drug:protein 100:1, calcium present

T2 sequence (P02743 20-223): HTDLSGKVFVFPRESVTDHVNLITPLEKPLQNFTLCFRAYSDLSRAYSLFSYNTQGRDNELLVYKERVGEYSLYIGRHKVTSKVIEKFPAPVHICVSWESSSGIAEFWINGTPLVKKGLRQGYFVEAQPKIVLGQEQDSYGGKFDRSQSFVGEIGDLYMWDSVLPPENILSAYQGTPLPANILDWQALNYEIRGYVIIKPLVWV
T1 sequence (P02743 20-223): as above
Chain of SAP (P02743 20-223): as above
T4 sequence (P02743 20-223): as above

Circulating human SAP (SAP): rapidly depleted
Dissociation of human SAP from amyloid deposits (125I-labelled human SAP; 50 μg/kg/day, continuous infusion): significantly dissociated
Dissociation of radiolabelled human SAP tracer from amyloid deposits (125I-labelled human SAP; [2]): dissociated
Uptake of radiolabelled human SAP tracer into mouse AA amyloid deposits (125I-labelled human SAP; intermittent intraperitoneal or subcutaneous injection): inhibited uptake
Molecular assembly (SAP in whole human serum; drug:protein 10:1, calcium present): High MW; also recorded: Decamer
Elution volume (SAP in whole human serum; [3]): 10.0 to 10.5 mL
Metabolism [1]: not metabolised
Oral bioavailability [1]: very limited oral bioavailability
Removal of endogenous mouse SAP from amyloid deposits (mouse SAP; 15 mg/kg/day, continuous infusion): removed all the mouse SAP
Dose required to dissociate any endogenous mouse SAP significantly (mouse SAP; [2]): 1.5 mg/kg/day
Effect on plasma SAP compared with intravenous infusion (plasma SAP): the same effect
SMILES: O=C(O)[C@H]1CCCN1C(=O)CCCCC(=O)N1CCC[C@@H]1C(=O)O [(R)-1-[6-(R)-2-Carboxy-pyrrolidin-1-yl]-6-oxo-hexanoyl]pyrrolidine-2-carboxylic acid]
Molecular assembly (SAP in whole human serum; drug:protein 1:1, calcium present): some of the SAP was solubilised as stable drug-decamer complexes; also recorded: High MW
Molecular assembly (SAP in whole human serum; [3]): all the SAP was in this form; also recorded: Decamer
Excretion [1]: very rapidly excreted, predominantly in the urine, with a small amount in the bile
